We go through 8 compounds from patent US6569839B1, “Fast-acting pharmaceutical compositions and methods of use” (priority 1998, dated 2003).

Each structure is given as a SMILES string.

The conditions of data set [1]: 0.5%, continuous perineural infusion around the major nerve; cited from earlier work.
For data set [2] the following is noted: 1000 units of Heparin with 1 gm of Cefazolin; cited from earlier work.
For data set [3], the system named is gram negative organisms and many gram positive organisms which include staphylococcus aureus and staphylococcus epidermidis. The following applies: cited from earlier work.
The nature of data set [4]: Absorption of antibiotic from the treated wound. In kind it is in vivo. The settings on record: administered to the wound over 24 hour period. The procedure: In an embodiment of the present invention, a medicinal solution comprising Chloramphenicol can be prepared such that the patient receives only about 1-½ gm in a 24 hour period. Thus, if 100% was absorbed during the 24 hour period while treating a wound as, for example, following a total knee arthroplasty, the administered 1 ½ gm over a 24 hour is a safe dose, in fact, for three days. Since, however, only approximately 40% of the antibiotic is typically absorbed, the amount that is available to the bone marrow is, thus, very small. For patients with blood dyscrasias a dose of about 2 gm of Cephalosporin or a dose of about 1 gm Septaz can be used in place of a dose of about 1 g of Chloramphenicol for the 24 hour period.

Data set [5] concerns common bone and joint infections. The following applies: cited from earlier work.
The conditions of data set [6]: I.V. every 90 minutes; cited from earlier work.
For data set [7] the following is noted: 50 to 100 mg I.V. over a 40 to 120 second period; cited from earlier work.
The conditions of data set [8]: in vivo.
The conditions of data set [9]: 1 gm interoperatively; total hip or knee joint replacements; 95% without steroid; cited from earlier work.

As to `CCCCN1CCCCC1C(=O)Nc1c(C)cccc1C` (centres unmarked) [Bupicocaine], the relief of pain entry in [1] is recorded as “good relief of pain”.
In the case of `Cc1nnc(SCC2=C(C(=O)O)N3C(=O)[C@@H](NC(=O)Cn4cnnn4)[C@H]3SC2)s1` [Cefazolin], the time compatible in [2] was 24 h.
As for `CC(C)(O/N=C(\C(=O)N[C@@H]1C(=O)N2C(C(=O)[O-])=C(C[n+]3ccccc3)CS[C@H]12)c1csc(N)n1)C(=O)O` [Ceftazidime], the Bacterial coverage entry in data set [3] is “very good”.
For `O=C(N[C@H](CO)[C@H](O)c1ccc([N+](=O)[O-])cc1)C(Cl)Cl` [Chloramphenicol], the “fraction of the antibiotic typically absorbed” value in data set [4] is reported as “approximately 40%”. Moreover, the “effectiveness as broad-spectrum antibiotic” value in data set [5] (against the common bone and joint infections) is “very effective”. Moreover, in data set [5] (in vivo), the reported blood toxicity entry is “aplastic anemia and other blood problems”.
On to `CCN(CC)CC(=O)Nc1c(C)cccc1C` [Lidocaine], for which the maximum suggested dose entry in data set [6] is reported as “about 300 mg”. The ill effects entry in data set [7] is listed as “without ill effects”.
On to `CCCCN1CCCCC1C(=O)Nc1c(C)cccc1C` (centres unmarked) [Marcaine], for which the “complications if dosage is not strictly monitored” value in [8] is given as “critical complications can occur”.
In the case of `C[C@]12CCC(=O)C=C1CC[C@@H]1[C@@H]2[C@@H](O)C[C@@]2(C)[C@H]1CC[C@]2(O)C(=O)COC(=O)CCC(=O)O` [Solu-Cortef, Hydrocortisone sodium succinate], the “patients who experienced pain with interoperative steroid administration” value in [9] is given as 33%.
Regarding `C[C@H]1C[C@@H]2[C@H]([C@@H](O)C[C@@]3(C)[C@H]2CC[C@]3(O)C(=O)COC(=O)CCC(=O)O)[C@@]2(C)C=CC(=O)C=C12` [Solumedrol], the “patients who experienced pain with interoperative steroid administration” value in [9] is 33%.
